Assay results published in US12491181B2, “Nimodipine injection composition and preparation method therefor” (priority 2018, dated 2025).
≈ marks a conversion by molar mass, not a printed value. Where two headings read alike, the source gives them in different places.

Legend:
[1] = system: Wild-type AB zebrafish larvae; assay: Zebrafish cardiovascular toxicity, administration via yolk sac injection; assay type: in vivo; conditions: yolk sac injection 10 nl
Procedure: Wild-type AB zebrafish larvae were treated with the drugs to be tested for 24 hours via yolk sac injection administration with a maximum dose volume of 40 nl, and the five initial test concentrations were: 0.1 mg/mL, 1 mg/mL, 10 mg/mL, 100 mg/mL, and 500 mg/mL, respectively. At the same time, a blank control group was set up, with 30 zebrafish treated at each concentration. At the end of drug treatment, the number of zebrafish deaths in each experimental group was counted to provide a basis for the next experimental concentration design.
2.2.1 10 nl was administered via yolk sac injection. After treatment for a certain period of time, 10 zebrafish were randomly selected to have their heart rates counted, and their relative heart rates were calculated for comparison.
2.2.3 10 zebrafish in each group were randomly selected and observed under the dissecting microscope. […]
Three formal experimental concentrations were set. After treatment for a certain period of time, 10 zebrafish were randomly selected to have their heart rates counted, and their relative heart rates were calculated for comparison.

[2] = cited from earlier work
[3] = system: Wild-type AB zebrafish larvae; assay: Zebrafish cardiovascular toxicity, administration by dissolving the drug into the water; assay type: in vivo; set-up: Mortality / Incidence of Atrial Arrest: unit not given here
[4] = Solubility Test for Nimodipine in Oil Phase; assay type: physicochemical; conditions: normal temperature; for solubility: oil or lipid
From the text: There are different crystalline forms for nimodipine, i.e. α and β. The solubility is different in solvents for different crystalline forms. […] The solubility in an oil phase was not reported yet. […] Furthermore, the solubility of α-type is much greater than that of β-type both in the medium-chain fatty oil and the mixture of soybean oil and medium-chain fatty oil (see the table below). Therefore, formulating α-type nimodipine into a fat emulsion injection may solve the problems of low drug loading efficiency, poor safety, and poor stability occurring in its solution for injection and other fat emulsions for injection developed by the prior art. [table]

[5] = cited from earlier work; remark: listed apart in the source
[6] = system: SD rats; assay: Passive Anaphylaxis Test in Rats; assay type: in vivo, rat; set-up: key to Blue Stain Reaction: − indicates negative; + indicates positive; conditions: sensitized SD rats, 100 mg/kg intravenously, positive control
[7] = system: guinea pigs; assay: Active Systemic Anaphylaxis Test in Guinea Pigs; conditions: positive control group, after stimulation
[8] = dissolved into the water, 0.625 μg/ml
[9] = dissolved into the water, 1.25 μg/ml
[10] = dissolved into the water, 2.5 μg/ml
[11] = dissolved into the water, 5.0 μg/ml

## COCCOC(=O)C1=C(C)NC(C)=C(C(=O)OC(C)C)C1c1cccc([N+](=O)[O-])c1 (centres unmarked) [Drug substance, Nimodipine]
[1]; 0.5 mg/ml
  Actual Heart Rate (± SD): 159.0 ± 6.8 beat / min
  Incidence of Circulatory Insufficiency: 0%
  Incidence of Decreased Blood Flow: 0%
  Incidence of Pericardial Edema: 0%
  Mortality: 0%
  Relative Heart Rate (± SD): 99.1 ± 4.2%
[1]; 1.0 mg/ml
  Actual Heart Rate (± SD): 159.6 ± 5.3 beat / min
  Incidence of Circulatory Insufficiency: 0%
  Incidence of Decreased Blood Flow: 10%
  Incidence of Pericardial Edema: 20%
  Mortality: 0%
  Relative Heart Rate (± SD): 99.4 ± 3.3%
[1]; 2.0 mg/ml
  Actual Heart Rate (± SD): 158.4 ± 8.7 beat / min
  Incidence of Circulatory Insufficiency: 10%
  Incidence of Decreased Blood Flow: 10%
  Mortality: 0%
  Relative Heart Rate (± SD): 98.7 ± 5.4%
[1]; 2.0 mg/ml (67 mg/kg)
  Incidence of Pericardial Edema: 30%
[1]; 4.0 mg/ml
  Actual Heart Rate (± SD): 166.5 ± 7.2 beat / min
  Incidence of Circulatory Insufficiency: 10%
  Incidence of Decreased Blood Flow: 40%
  Incidence of Pericardial Edema: 60%
  Mortality: 20%
  Relative Heart Rate (± SD): 103.7 ± 4.5%
[1]; 8.0 mg/ml
  Actual Heart Rate (± SD): 167.1 ± 10.2 beat / min
  Incidence of Circulatory Insufficiency: 40%
  Incidence of Decreased Blood Flow: 10%
  Incidence of Pericardial Edema: 60%
  Mortality: 33.3%
  Relative Heart Rate (± SD): 104.1 ± 6.4%
[1]; 16 mg/ml
  Actual Heart Rate (± SD): 166.8 ± 10.3 beat / min
  Incidence of Circulatory Insufficiency: 40%
  Incidence of Decreased Blood Flow: 30%
  Incidence of Pericardial Edema: 70%
  Mortality: 50%
  Relative Heart Rate (± SD): 103.9 ± 6.4%
[1]; 32 mg/ml
  Actual Heart Rate (± SD): 144.5 ± 7.4 beat / min
  Incidence of Circulatory Insufficiency: 100%
  Incidence of Decreased Blood Flow: 0%
  Incidence of Pericardial Edema: 100%
  Mortality: 80%
  Relative Heart Rate (± SD): 90.0 ± 4.6 %
[2]; healthy subjects
  oral bioavailability: 5-13%
[2]; in vivo
  biological half-life: 1.5-2 h
[2]; patients with subarachnoid hemorrhage
  oral bioavailability: 3-28%
[3]; dissolved into the water
  concentration at which pericardial edema was induced in all zebrafish: 5000 ng/mL
[3]; [8]
  Incidence of Atrial Arrest: 0
  Incidence of Pericardial Edema: 10
  Mortality: 0
  Relative Heart Rate: 97.0
[3]; [9]
  Incidence of Atrial Arrest: 0
  Incidence of Pericardial Edema: 20
  Mortality: 0
  Relative Heart Rate: 94.8
[3]; [10]
  Incidence of Atrial Arrest: 10
  Incidence of Pericardial Edema: 50
  Mortality: 0
  Relative Heart Rate: 76.4
[3]; [11]
  Incidence of Atrial Arrest: 90
  Incidence of Pericardial Edema: 100
  Mortality: 26.7
  Relative Heart Rate: 58.5
  incidence of atrial arrest: 90%
[3]; zebrafish, drug dissolved into the water, 24 hours
  maximum non-lethal concentration: 2.5 µg/mL

## COCCOC(=O)C1=C(C)NC(C)=C(C(=O)OC(C)C)C1c1cccc([N+](=O)[O-])c1 (stereo not drawn) [α-type, nimodipine]
[4]
  Solubility, Medium-chain Oil: 23.22 mg/mL (≈ 55.5 mM)
  Solubility, Soybean Oil: 7.5 mg/mL (≈ 17.9 mM)
  Solubility, Soybean Oil:Medium-chain Oil (4:6): 18.1 mg/mL (≈ 43.3 mM)

## COCCOC(=O)C1=C(C)NC(C)=C(C(=O)OC(C)C)C1c1cccc([N+](=O)[O-])c1 (stereo not drawn) [β-type, nimodipine]
[5]; normal temperature
  Solubility, Water: 0.0036 mg/mL (≈ 0.0086 mM)
[5]; published literature
  solubility in water: 0.0036 mg/mL (≈ 0.0086 mM)
[4]; medium-chain oil, read-out: Solubility, Medium-chain Oil
  solubility: 11.8 mg/mL (≈ 28.2 mM)
[4]; soybean oil, read-out: Solubility, Soybean Oil
  solubility: 6.7 mg/mL (≈ 16 mM)
[4]; soybean oil:medium-chain oil (4:6), read-out: Solubility, Soybean Oil:Medium-chain Oil (4:6)
  solubility: 11 mg/mL (≈ 26.3 mM)

## bovine serum albumin: positive control of the anaphylaxis tests
[6]
  Blue Stain Reaction: +
  Blue Stain Reaction (diameter): 22.0 ± 4.3 mm
[7]
  intensity of anaphylaxis reaction: ++˜++++
  mortality rate: 50%
  total reaction rate: 100%
